Earlier results in patent publication US9180194B2, “Method and composition for transdermal drug delivery” (Acrux DDS Pty Ltd, priority 2005, dated 2015).

Details: continuous trans-scrotal delivery

In the case of C[C@]12CC[C@H]3[C@@H](CCC4=CC(=O)CC[C@@]43C)[C@@H]1CC[C@@H]2O [testosterone], the “levels of DHT and DHT/testosterone ratios relative to normal” value is given as 4 to 5 fold.
